The values below are quoted from earlier work in US5827682A, “Two-step conversion of vegetable protein isoflavone conjugates to aglucones” (Protein Technologies International, Inc., priority 1996, dated 1998).

For data set [1], the system named is human prostate cancer cells. The following applies: title of cited article.
In data set [2] the test system is Epidermal Growth Factor Receptor. As to conditions: title of cited article.
For data set [3], the system named is human breast cancer cells. As to conditions: title of cited article; independence from estrogen receptors and the multi-drug resistance gene.

As to `COc1ccc(-c2coc3cc(O)cc(O)c3c2=O)cc1` [Biochanin A, biochanin A], the “Inhibition of the growth of human prostate cancer cells” value in data set [1] is “Inhibit the Growth of Human Prostate Cancer Cells”. The “Inhibition of epidermal growth factor receptor tyrosine autophosphorylation” value in data set [2] is “not Epidermal Growth Factor Receptor Tyrosine Autophosphorylation”.
Consider `O=c1c(-c2ccc(O)cc2)coc2cc(O)cc(O)c12` [Genistein, genistein], for which the “Inhibition of the growth of human breast cancer cells” value in data set [3] is “Inhibition of the Growth of Human Breast Cancer Cells”. Besides, the “Inhibition of the growth of human prostate cancer cells” value in data set [1] is given as “Inhibit the Growth of Human Prostate Cancer Cells”. Moreover, the “Inhibition of epidermal growth factor receptor tyrosine autophosphorylation” value in data set [2] is reported as “not Epidermal Growth Factor Receptor Tyrosine Autophosphorylation”.
